Values belong to the compound of their own block, whether it stands above or below them.
Tested on: 252836-082-R-J2-PDC tumor spheroids, viability
Assay: Anticancer human tumor 252836-082-R-J2-PDC patient-derived head and neck squamous cell carcinoma cell line growth inhibition [PI3K]
Conditions: spheroids with HUVEC and MSC; for IC50: curve of first compound; for viability, T/C: stronger effect = lower value
In short: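 Tumor cells were combined with HUVEC and MSCs into spheroids, then dosed with PI3K-inhibitor combinations over half-log ranges capped near clinical Cmax or 10 microM.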

[1] = second compound 0.00316 µM, first compound 0.0316 µM
[2] = second compound 0.00316 µM, first compound 0.1 µM
[3] = second compound 0.00316 µM, first compound 0.316 µM
[4] = second compound 0.00316 µM, first compound 1 µM
[5] = second compound 0.01 µM, first compound 0.0316 µM
[6] = second compound 0.01 µM, first compound 0.1 µM
[7] = second compound 0.01 µM, first compound 0.316 µM
[8] = second compound 0.01 µM, first compound 1 µM
[9] = second compound 0.0316 µM, first compound 0.0316 µM
[10] = second compound 0.0316 µM, first compound 0.1 µM
[11] = second compound 0.0316 µM, first compound 0.316 µM
[12] = second compound 0.0316 µM, first compound 1 µM
[13] = second compound 0.1 µM, first compound 0.0316 µM
[14] = second compound 0.1 µM, first compound 0.1 µM
[15] = second compound 0.1 µM, first compound 0.316 µM
[16] = second compound 0.1 µM, first compound 1 µM
[17] = second compound 0.316 µM, first compound 0.0316 µM
[18] = second compound 0.316 µM, first compound 0.1 µM
[19] = second compound 0.316 µM, first compound 0.316 µM
[20] = second compound 0.316 µM, first compound 1 µM
[21] = second compound 1 µM, first compound 0.0316 µM
[22] = second compound 1 µM, first compound 0.1 µM
[23] = second compound 1 µM, first compound 0.316 µM
[24] = second compound 1 µM, first compound 1 µM
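Also: spheroids exposed to agents for seven days before readout.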
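For viability, T/C in this document: percent of vehicle DMSO control viability so 100% = untreated growth.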

IC50 (second compound 0.00316 µM): 710 nM
IC50 (second compound 0.01 µM): 749 nM
IC50 (second compound 0.0316 µM): 631 nM
IC50 (second compound 0.1 µM): 234 nM
IC50 (second compound 0.316 µM): 173 nM
IC50 (second compound 1 µM): < 31.6 nM
SMILES: CC(C)NCC(C(=O)N1CCN(c2ncnc3c2C(C)CC3O)CC1)c1ccc(Cl)cc1 (centres undefined) + CC(Nc1ccc2c(c1)OCCn1cc(N3C(=O)OCC3C(F)F)nc1-2)C(N)=O
viability, T/C [1]: 100%
viability, T/C [2]: 83%
viability, T/C [3]: 66.9%
viability, T/C [4]: 41.4%
viability, T/C (second compound 0.00316 µM, first compound 3.16 µM): 29.8%
viability, T/C (second compound 0.00316 µM, first compound 10 µM): 18.3%
viability, T/C [5]: 83.1%
viability, T/C [6]: 88.3%
viability, T/C [7]: 69.6%
viability, T/C [8]: 42.5%
viability, T/C (second compound 0.01 µM, first compound 3.16 µM): 28.5%
viability, T/C (second compound 0.01 µM, first compound 10 µM): 20.1%
viability, T/C [9]: 87.4%
viability, T/C [10]: 82.3%
viability, T/C [11]: 67%
viability, T/C [12]: 36.9%
viability, T/C (second compound 0.0316 µM, first compound 3.16 µM): 29.3%
viability, T/C (second compound 0.0316 µM, first compound 10 µM): 17.9%
viability, T/C [13]: 74.8%
viability, T/C [14]: 56.4%
viability, T/C [15]: 47.9%
viability, T/C [16]: 35.8%
viability, T/C (second compound 0.1 µM, first compound 3.16 µM): 23.8%
viability, T/C (second compound 0.1 µM, first compound 10 µM): 15.7%
viability, T/C [17]: 54.9%
viability, T/C [18]: 49.6%
viability, T/C [19]: 49.4%
viability, T/C [20]: 37.3%
viability, T/C (second compound 0.316 µM, first compound 3.16 µM): 25.4%
viability, T/C (second compound 0.316 µM, first compound 10 µM): 16.6%
viability, T/C [21]: 43%
viability, T/C [22]: 42.2%
viability, T/C [23]: 37.3%
viability, T/C [24]: 29.2%
viability, T/C (second compound 1 µM, first compound 3.16 µM): 22.8%
viability, T/C (second compound 1 µM, first compound 10 µM): 14.7%

IC50 (second compound 0.00316 µM): > 1000 nM
IC50 (second compound 0.01 µM): > 1000 nM
IC50 (second compound 0.0316 µM): > 1000 nM
IC50 (second compound 0.1 µM): > 1000 nM
IC50 (second compound 0.316 µM): 36.1 nM
IC50 (second compound 1 µM): < 3.16 nM
SMILES: CCN1CCN(Cc2ccc(Nc3ncc(F)c(-c4cc(F)c5nc(C)n(C(C)C)c5c4)n3)nc2)CC1 + CC(Nc1ccc2c(c1)OCCn1cc(N3C(=O)OCC3C(F)F)nc1-2)C(N)=O
viability, T/C (second compound 0.00316 µM, first compound 0.00316 µM): 87.8%
viability, T/C (second compound 0.00316 µM, first compound 0.01 µM): 86.1%
viability, T/C [1]: 75.3%
viability, T/C [2]: 93.1%
viability, T/C [3]: 82.7%
viability, T/C [4]: 76.5%
viability, T/C (second compound 0.01 µM, first compound 0.00316 µM): 90.3%
viability, T/C (second compound 0.01 µM, first compound 0.01 µM): 82.5%
viability, T/C [5]: 94.4%
viability, T/C [6]: 78.7%
viability, T/C [7]: 90%
viability, T/C [8]: 70.3%
viability, T/C (second compound 0.0316 µM, first compound 0.00316 µM): 79.1%
viability, T/C (second compound 0.0316 µM, first compound 0.01 µM): 79.6%
viability, T/C [9]: 73%
viability, T/C [10]: 74.1%
viability, T/C [11]: 80.6%
viability, T/C [12]: 81.3%
viability, T/C (second compound 0.1 µM, first compound 0.00316 µM): 73.7%
viability, T/C (second compound 0.1 µM, first compound 0.01 µM): 59.7%
viability, T/C [13]: 58.8%
viability, T/C [14]: 66.5%
viability, T/C [15]: 52.3%
viability, T/C [16]: 54.2%
viability, T/C (second compound 0.316 µM, first compound 0.00316 µM): 51.2%
viability, T/C (second compound 0.316 µM, first compound 0.01 µM): 47.4%
viability, T/C [17]: 51.5%
viability, T/C [18]: 53.3%
viability, T/C [19]: 50.8%
viability, T/C [20]: 44.3%
viability, T/C (second compound 1 µM, first compound 0.00316 µM): 47%
viability, T/C (second compound 1 µM, first compound 0.01 µM): 43.9%
viability, T/C [21]: 43.5%
viability, T/C [22]: 36.8%
viability, T/C [23]: 40.5%
viability, T/C [24]: 31.8%
